Assay results: patent US11084822B2, “Salts and processes of preparing a PI3K inhibitor” (Incyte Corporation, priority 2015, dated 2021)

Columns and labels:
Type in all cases: biochemical
JAK1 = JAK1 (Homo sapiens (Human), UniProt P23458); experiment: JAK1 IC50 by the method of Assay A at 1 mM ATP
JAK2 = JAK2 (Homo sapiens (Human), UniProt O60674); experiment: JAK2 versus JAK1 (Assay A at 1 mM ATP); conditions: ratio JAK2/JAK1, Assay A at 1 mM ATP
PI3Kδ = PI3Kδ (Homo sapiens (Human), UniProt O00329); experiment: Example A2: PI3K Enzyme Assay ([γ-33P]ATP filter plate); conditions: assay of Example A2
PI3Kδ, sequence (O00329 whole entry, species assumed, canonical isoform): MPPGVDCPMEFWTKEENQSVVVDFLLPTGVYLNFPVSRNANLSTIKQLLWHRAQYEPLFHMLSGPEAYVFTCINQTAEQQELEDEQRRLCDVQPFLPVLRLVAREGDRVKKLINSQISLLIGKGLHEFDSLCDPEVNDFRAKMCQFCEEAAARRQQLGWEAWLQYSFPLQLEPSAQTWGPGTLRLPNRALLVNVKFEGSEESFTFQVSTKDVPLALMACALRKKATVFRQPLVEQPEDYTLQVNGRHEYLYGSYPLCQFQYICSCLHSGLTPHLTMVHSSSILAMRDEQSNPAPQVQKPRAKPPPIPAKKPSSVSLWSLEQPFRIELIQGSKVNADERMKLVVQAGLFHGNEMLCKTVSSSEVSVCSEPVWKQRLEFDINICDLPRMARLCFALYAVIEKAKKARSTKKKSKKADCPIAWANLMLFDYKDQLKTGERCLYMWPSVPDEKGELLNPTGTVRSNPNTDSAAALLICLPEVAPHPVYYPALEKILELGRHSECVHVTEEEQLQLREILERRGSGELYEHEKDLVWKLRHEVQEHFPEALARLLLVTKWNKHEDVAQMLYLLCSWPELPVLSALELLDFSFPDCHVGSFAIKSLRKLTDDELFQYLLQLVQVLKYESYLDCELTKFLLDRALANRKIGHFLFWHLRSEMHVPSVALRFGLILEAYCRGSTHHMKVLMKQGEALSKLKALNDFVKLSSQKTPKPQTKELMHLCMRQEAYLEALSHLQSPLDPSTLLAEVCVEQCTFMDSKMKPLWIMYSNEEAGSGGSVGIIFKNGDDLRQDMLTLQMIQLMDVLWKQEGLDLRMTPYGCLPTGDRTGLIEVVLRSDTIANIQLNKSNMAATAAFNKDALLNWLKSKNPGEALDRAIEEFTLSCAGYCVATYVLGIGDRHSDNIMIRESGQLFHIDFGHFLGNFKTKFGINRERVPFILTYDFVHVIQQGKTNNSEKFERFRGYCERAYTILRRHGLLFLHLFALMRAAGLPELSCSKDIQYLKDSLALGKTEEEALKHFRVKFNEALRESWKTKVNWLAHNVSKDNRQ
PI3Kδ, sequence (P27986 whole entry partner, species assumed, canonical isoform): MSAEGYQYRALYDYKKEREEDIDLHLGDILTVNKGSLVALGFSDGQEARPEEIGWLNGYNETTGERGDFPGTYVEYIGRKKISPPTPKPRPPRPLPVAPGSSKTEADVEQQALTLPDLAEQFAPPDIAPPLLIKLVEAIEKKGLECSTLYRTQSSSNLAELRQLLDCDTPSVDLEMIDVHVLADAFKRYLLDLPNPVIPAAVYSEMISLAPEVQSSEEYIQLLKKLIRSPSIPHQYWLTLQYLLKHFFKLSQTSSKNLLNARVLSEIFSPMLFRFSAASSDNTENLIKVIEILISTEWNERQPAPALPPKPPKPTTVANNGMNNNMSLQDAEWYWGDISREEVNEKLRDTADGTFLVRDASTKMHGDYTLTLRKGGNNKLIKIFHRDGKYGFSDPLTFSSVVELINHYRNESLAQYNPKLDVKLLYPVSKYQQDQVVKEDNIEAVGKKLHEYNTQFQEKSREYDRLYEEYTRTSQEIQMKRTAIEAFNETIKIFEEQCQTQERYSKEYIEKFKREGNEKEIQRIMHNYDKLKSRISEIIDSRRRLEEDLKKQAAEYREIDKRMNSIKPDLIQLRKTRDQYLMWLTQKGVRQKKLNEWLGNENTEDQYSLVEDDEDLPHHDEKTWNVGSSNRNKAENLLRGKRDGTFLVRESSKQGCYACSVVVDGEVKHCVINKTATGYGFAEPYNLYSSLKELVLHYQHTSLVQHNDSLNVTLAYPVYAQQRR
Experimental: PI3K isoforms α, β, δ and γ are purchased from Millipore (Bedford, Mass.).
The kinase reactions are conducted in clear-bottom 96-well plate from Thermo Fisher Scientific in a final volume of 24 μL. Inhibitors are first diluted serially in DMSO and added to the plate wells before the addition of other reaction components. The final concentration of DMSO in the assay is 0.5%. […] The reaction mixture is prepared containing 50 μM PIP2, kinase and varying concentration of inhibitors. […] Reactions are incubated for 180 minutes and terminated by the addition of 100 μL of 1 M potassium phosphate pH 8.0, 30 mM EDTA quench buffer. A 100 μL aliquot of the reaction solution are then transferred to 96-well Millipore MultiScreen IP 0.45 μm PVDF filter plate (The filter plate is prewetted with 200 μL 100% ethanol, distilled water, and 1 M potassium phosphate pH 8.0, respectively). […] After drying by aspiration and blotting, the plate is air dried in an incubator at 37° C. overnight. Packard TopCount adapter (Millipore) is then attached to the plate followed with addition of 120 μL Microscint 20 scintillation cocktail (Perkin Elmer) in each well. After the plate sealing, the radioactivity of the product is determined by scintillation counting on Topcount (Perkin-Elmer). […]

PI3K = PI3K inhibition according to at least one assay described herein

JAK2, sequence (O60674 whole entry, species assumed): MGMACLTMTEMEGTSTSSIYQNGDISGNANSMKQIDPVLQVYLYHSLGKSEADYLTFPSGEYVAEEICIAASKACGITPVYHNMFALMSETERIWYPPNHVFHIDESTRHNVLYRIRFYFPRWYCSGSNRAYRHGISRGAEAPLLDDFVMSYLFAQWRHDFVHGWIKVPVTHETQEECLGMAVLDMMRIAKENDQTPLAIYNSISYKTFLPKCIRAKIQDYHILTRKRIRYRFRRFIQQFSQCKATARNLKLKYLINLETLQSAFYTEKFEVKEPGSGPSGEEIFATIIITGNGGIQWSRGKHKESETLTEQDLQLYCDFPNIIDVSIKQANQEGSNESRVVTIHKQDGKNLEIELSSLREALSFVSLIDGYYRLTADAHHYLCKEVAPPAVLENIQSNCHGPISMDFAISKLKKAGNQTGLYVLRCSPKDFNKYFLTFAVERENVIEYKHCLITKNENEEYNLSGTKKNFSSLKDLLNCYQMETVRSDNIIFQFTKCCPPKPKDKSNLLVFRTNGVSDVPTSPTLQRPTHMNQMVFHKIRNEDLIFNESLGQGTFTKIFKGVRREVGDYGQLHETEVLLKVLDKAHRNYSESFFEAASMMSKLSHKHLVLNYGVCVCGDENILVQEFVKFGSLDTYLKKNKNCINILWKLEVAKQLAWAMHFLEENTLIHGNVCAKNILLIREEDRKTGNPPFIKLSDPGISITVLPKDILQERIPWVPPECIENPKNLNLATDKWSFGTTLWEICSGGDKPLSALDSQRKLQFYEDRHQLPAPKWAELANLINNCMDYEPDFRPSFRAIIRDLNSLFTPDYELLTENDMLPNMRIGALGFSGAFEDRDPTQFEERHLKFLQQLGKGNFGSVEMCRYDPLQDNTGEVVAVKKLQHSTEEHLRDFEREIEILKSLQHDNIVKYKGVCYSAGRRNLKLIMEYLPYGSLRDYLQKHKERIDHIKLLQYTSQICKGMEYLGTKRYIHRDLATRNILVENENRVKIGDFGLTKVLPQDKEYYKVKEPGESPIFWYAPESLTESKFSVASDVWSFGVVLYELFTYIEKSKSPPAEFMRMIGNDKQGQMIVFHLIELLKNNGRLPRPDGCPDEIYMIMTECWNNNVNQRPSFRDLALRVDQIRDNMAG
JAK1, sequence (P23458 whole entry, species assumed): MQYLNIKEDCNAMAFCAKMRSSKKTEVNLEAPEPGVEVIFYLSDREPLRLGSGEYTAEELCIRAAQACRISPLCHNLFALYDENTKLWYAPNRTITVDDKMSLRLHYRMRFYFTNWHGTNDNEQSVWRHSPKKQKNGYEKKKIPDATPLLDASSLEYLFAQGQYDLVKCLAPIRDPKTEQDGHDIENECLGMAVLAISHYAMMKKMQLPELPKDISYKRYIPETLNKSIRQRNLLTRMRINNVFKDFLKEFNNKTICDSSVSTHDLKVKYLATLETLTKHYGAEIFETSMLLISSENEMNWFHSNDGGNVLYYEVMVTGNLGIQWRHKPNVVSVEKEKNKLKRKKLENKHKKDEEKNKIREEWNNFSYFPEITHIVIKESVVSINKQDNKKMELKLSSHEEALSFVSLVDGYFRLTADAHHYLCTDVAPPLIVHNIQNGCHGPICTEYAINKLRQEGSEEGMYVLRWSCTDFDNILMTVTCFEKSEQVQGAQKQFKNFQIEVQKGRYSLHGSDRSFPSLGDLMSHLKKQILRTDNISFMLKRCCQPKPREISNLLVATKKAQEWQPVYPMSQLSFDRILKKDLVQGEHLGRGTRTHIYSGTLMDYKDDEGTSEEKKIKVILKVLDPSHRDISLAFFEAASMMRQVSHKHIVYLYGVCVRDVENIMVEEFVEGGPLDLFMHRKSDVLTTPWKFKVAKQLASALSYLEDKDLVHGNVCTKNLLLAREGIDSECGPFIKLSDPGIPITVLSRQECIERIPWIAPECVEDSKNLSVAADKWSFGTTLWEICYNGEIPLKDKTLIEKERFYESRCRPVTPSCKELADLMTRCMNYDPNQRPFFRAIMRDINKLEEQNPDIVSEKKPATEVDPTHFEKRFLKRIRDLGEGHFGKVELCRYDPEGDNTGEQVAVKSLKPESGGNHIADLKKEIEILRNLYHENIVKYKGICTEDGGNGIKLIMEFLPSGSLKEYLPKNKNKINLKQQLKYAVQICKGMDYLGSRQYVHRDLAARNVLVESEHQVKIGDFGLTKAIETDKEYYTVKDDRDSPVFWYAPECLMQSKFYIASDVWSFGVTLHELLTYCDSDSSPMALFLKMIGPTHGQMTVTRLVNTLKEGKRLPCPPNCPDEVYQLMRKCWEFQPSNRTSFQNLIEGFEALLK

JAK2/JAK1 (JAK2)	SMILES	PI3K inhibition (PI3K)	also measured
>10	C[C@H](NC(=O)c1cc(F)c(N2CC(CC#N)(n3cc(-c4ncnc5[nH]ccc45)cn3)C2)cc1F)C(F)(F)F [Compound 16, 4-{3-(cyanomethyl)-3-[4-(7H-pyrrolo[2,3-d]pyrimidin-4-yl)-1H-pyrazol-1-yl]azetidin-1-yl}-2,5-difluoro-N-[(1S)-2,2,2-trifluoro-1-methylethyl]benzamide]		
>10	N#CCC1(n2cc(-c3ncnc4[nH]ccc34)cn2)CN([C@H]2CC[C@@H](Oc3cc(CCO)nc(C(F)(F)F)n3)CC2)C1 [Compound 18, {1-(cis-4-{[6-(2-hydroxyethyl)-2-(trifluoromethyl)pyrimidin-4-yl]oxy}cyclohexyl)-3-[4-(7H-pyrrolo[2,3-d]pyrimidin-4-yl)-1H-pyrazol-1-yl]azetidin-3-yl)acetonitrile]		
>10	C[C@@H](CO)NCc1cc(OC2CCN([C@H]3C[C@](CC#N)(n4cc(-c5ncnc6[nH]ccc56)cn4)C3)CC2)nc(C(F)(F)F)c1 [Compound 23, {trans-3-(4-{[4-({[(1S)-2-hydroxy-1-methylethyl]amino}methyl)-6-(trifluoromethyl)pyridin-2-yl]oxy}piperidin-1-yl)-1-[4-(7H-pyrrolo[2,3-d]pyrimidin-4-yl)-1H-pyrazol-1-yl]cyclobutyl}acetonitrile]		

Continued, compound first:

SMILES	JAK2/JAK1 (JAK2)	PI3K inhibition (PI3K)	also measured
C[C@@H](O)c1nc2cnc3ccsc3c2n1[C@H]1CC[C@H](CC#N)OC1 [Compound 1, ((2R,5S)-5-{2-[(1R)-1-hydroxyethyl]-1H-imidazo[4,5-d]thieno[3,2-b]pyridin-1-yl}tetrahydro-2H-pyran-2-yl)acetonitrile]	>10		IC50 (JAK1): < 100 nM
CCOc1c([C@H](C)n2nc(C)c3c(N)ncnc32)cc(Cl)c(F)c1[C@@H]1CNC(=O)C1.Cl [(R)-4-(3-((S)-1-(4-amino-3-methyl-1H-pyrazolo[3,4-d]pyrimidin-1-yl)ethyl)-5-chloro-2-ethoxy-6-fluorophenyl)pyrrolidin-2-one hydrochloride]		found to be PI3K inhibitors	selectivity for PI3Kδ (PI3Kδ): selective inhibitor for PI3Kδ
CCOc1c([C@H](C)n2nc(C)c3c(N)ncnc32)cc(Cl)c(F)c1[C@@H]1CNC(=O)C1 [compound of Formula I, (R)-4-(3-((S)-1-(4-amino-3-methyl-1H-pyrazolo[3,4-d]pyrimidin-1-yl)ethyl)-5-chloro-2-ethoxy-6-fluorophenyl)pyrrolidin-2-one]		found to be PI3K inhibitors	
